{"source": "patent US20250263416A1", "about": "“SPPL2a INHIBITORS” (Incyte Corporation, priority 2024, published 2025)", "system": "Imiquimod (IMQ)-induced psoriasis mouse model", "test": "Imiquimod (IMQ)-induced psoriasis mouse model", "type": "in vivo, BALB/c female mice", "conditions": "15 mg/kg PO BID", "experimental": "A comparative study was performed to evaluate the efficacy of the deuterated-inhibitor Example 1 to Example A in the mouse model of psoriasis. Briefly, BALB/c female mice (7-8 week age) were shaved on the dorsal skin and 62.5 mg of IMQ cream was applied daily until day 9. Simultaneously, 15 mg of IMQ cream was applied on one ear daily until day 9. Example 1 and Example A were given orally (PO) at 15 mg/kg, BID. Mice were monitored and clinical signs of psoriasis were recorded (PSI score), both on the dorsal skin (erythema, scaling & thickness) and on the IMQ-applied ear (thickness). All data is presented as mean+SEM. For comparison of more than two groups, ANOVA was used. Pearson product moment correlation was used to test for correlations. All statistical analysis was performed using GraphPad Prism™ 10.", "data": [{"smiles": "CNC(=O)c1nc(C)c(C(=O)NC[C@@H](C)C(=O)N[C@@H]2C(=O)N3CCCN3Cc3ccccc32)s1", "note": "[Example A, N^2,4-dimethyl-N^5—((R)-2-methyl-3-oxo-3-(((S)-11-oxo-2,3,10,11-tetrahydro-1H,5H-benzo[d]pyrazolo[1,2-a][1,2]diazepin-10-yl)amino)propyl)thiazole-2,5-dicarboxamide]", "values": [{"measurement": "dorsal PSI scores", "value": "alleviate"}, {"measurement": "ear thickness measurements", "value": "alleviate"}, {"measurement": "clinical signs of psoriasis disease", "setting": "compared to vehicle group", "value": "significantly reduced"}, {"measurement": "Mouse IL-12 level in plasma", "setting": "terminal day", "value": "significant reduction"}, {"measurement": "Mouse TNFα level in plasma", "setting": "terminal day", "value": "significant reduction"}]}]}
